Values joined by “and” are separate entries in the source; they are usually repeats but may differ in a detail not shown here. Equal values may be shown once.
Molecular target: T1, LecA (Pseudomonas aeruginosa, UniProt Q05097)
T1 construct: made in house; host or cells: Escherichia coli BL21(DE3)
Assay: biochemical
Assay type: binding
Settings: for –ΔH (binding enthalpy) / n (stoichiometry, glycocluster molecules per lectin monomer) / –ΔG / –ΔH / −TΔS: ITC; for n (stoichiometry, glycocluster molecules per lectin monomer) / –ΔG / –ΔH / −TΔS: 25°C; for n (stoichiometry, glycocluster molecules per lectin monomer): pH 7.5; for –ΔG / –ΔH / −TΔS: per mole of glycocluster; for α (relative potency compared to the monovalent compound) / β (relative potency per sugar unit): relative to βGal-OMe
Procedure: The resulting hGCs were tested in solution with lectins by Isothermal Titration Calorimetry (Table 1) and their binding properties were compared with homoclusters 15–20 (Berthet et al., [2013]; Thomas et al., [2015b]) displaying either 4 and 16 βGal or αFuc units attached with an oxime or a triazole linker (Figure 3). […] Experiments were performed in direct injection mode (i.e., ligand in syringe and protein in cell) to minimize aggregation problems.
All chemical reagents were purchased from Aldrich (Saint Quentin Fallavier, France) or Acros (Noisy-Le-Grand, France). All protected amino acids and Fmoc-Gly-Sasrin® resin was obtained from Advanced ChemTech Europe (Brussels, Belgium). For peptides and glycopeptides, analytical RP-HPLC was performed on Waters system equipped with a Waters 2695 separations module and a Waters 2487 Dual Absorbance UV/Visible Detector. Analysis was carried out at 1.0 mL/min (EC 125/3 nucleosil 300-5 C18) with UV monitoring at 214 nm and 250 nm using a linear A–B gradient (buffer A: 0.09% CF3CO2H in water; buffer B: 0.09% CF3CO2H in 90% acetonitrile). Purifications were carried out at 22.0 mL/min (VP 250/21 nucleosil 100-7 C18) with UV monitoring at 214 nm and 250 nm using a linear A–B gradient. HRMS and ESI-MS and HRMS spectra of peptides and glycopeptides were measured on an Esquire 3000 spectrometer from Bruker. Lectins LecA and LecB were produced in recombinant form in Escherichia coli BL21(DE3) as described previously (Mitchell et al., [2005]; Blanchard et al., [2008]).
Other compounds were assayed with a VP-ITC isothermal titration calorimeter (Microcal). The experiments were carried out at 25°C. All glycocompounds and lectins LecB and LecA were dissolved in the same buffer composed of 20 mM Tris with 100 mM NaCl and 0.1 mM CaCl2 at pH 7.5. For PEAQ-ITC, the lectins were placed in the microcalorimeter cell (200 μL) at concentrations varying from 35 to 70 μM. […] For VP-ITC, the microcalorimeter cell (1.447 mL) contained the lectins with concentrations between 30 and 100 μM. […] The experimental data were fitted to a theoretical titration curve using the Microcal PEAQ-ITC analysis software, with ΔH (enthalpy change), Ka (association constant), and N (number of binding sites per monomer) as adjustable parameters. Dissociation constant (Kd), free energy change (ΔG), and entropy contributions (TΔS) were derived from the previous ones. Two or three independent titrations were performed for each ligand tested.

T1 sequence (Q05097 whole entry): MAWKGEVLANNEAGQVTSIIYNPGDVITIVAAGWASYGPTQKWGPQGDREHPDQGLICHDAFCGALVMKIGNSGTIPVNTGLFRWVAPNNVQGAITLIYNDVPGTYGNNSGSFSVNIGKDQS

SMILES	Kd	–ΔH (binding enthalpy) (LecA)	n (stoichiometry, glycocluster molecules per lectin monomer) (LecA)	–ΔG (LecA)	–ΔH (LecA)	−TΔS (LecA)	α (relative potency compared to the monovalent compound) (LecA)	β (relative potency per sugar unit) (LecA)	lower β factor than 18 (LecA, 20 versus 18)	binding to LecA in words (LecA, abstract)
C[C@@H]1NC(=O)[C@H](CCCCNC(=O)/C=N/O[C@H]2O[C@H](CO)[C@@H](O)[C@H](O)[C@@H]2O)NC(=O)CNC(=O)[C@@H]2CCCN2C(=O)[C@H](CCCCNC(=O)/C=N/O[C@H]2O[C@H](CO)[C@@H](O)[C@H](O)[C@@H]2O)NC(=O)[C@H](CCCCNC(=O)CO/N=C/C(=O)NCCCC[C@@H]2NC(=O)CNC(=O)[C@@H]3CCCN3C(=O)[C@H](CCCCNC(=O)/C=N/OCC(=O)NCCCC[C@@H]3NC(=O)[C@H](CCCCNC(=O)/C=N/O[C@H]4O[C@H](CO)[C@@H](O)[C@H](O)[C@@H]4O)NC(=O)CNC(=O)[C@@H]4CCCN4C(=O)[C@H](CCCCNC(=O)/C=N/O[C@H]4O[C@H](CO)[C@@H](O)[C@H](O)[C@@H]4O)NC(=O)[C@H](C)NC(=O)[C@H](CCCCNC(=O)/C=N/O[C@H]4O[C@H](CO)[C@@H](O)[C@H](O)[C@@H]4O)NC(=O)CNC(=O)[C@@H]4CCCN4C(=O)[C@H](CCCCNC(=O)/C=N/O[C@H]4O[C@H](CO)[C@@H](O)[C@H](O)[C@@H]4O)NC3=O)NC(=O)[C@H](CCCCN)NC(=O)[C@H](CCCCNC(=O)CO/N=C/C(=O)NCCCC[C@@H]3NC(=O)[C@H](CCCCn4cc(CO[C@@H]5O[C@H](CO)[C@H](O)[C@H](O)[C@H]5O)nn4)NC(=O)CNC(=O)[C@@H]4CCCN4C(=O)[C@H](CCCCn4cc(CO[C@@H]5O[C@H](CO)[C@H](O)[C@H](O)[C@H]5O)nn4)NC(=O)[C@H](C)NC(=O)[C@H](CCCCn4cc(CO[C@@H]5O[C@H](CO)[C@H](O)[C@H](O)[C@H]5O)nn4)NC(=O)CNC(=O)[C@@H]4CCCN4C(=O)[C@H](CCCCn4cc(CO[C@@H]5O[C@H](CO)[C@H](O)[C@H](O)[C@H]5O)nn4)NC3=O)NC(=O)CNC(=O)[C@@H]3CCCN3C(=O)[C@H](CCCCNC(=O)CO/N=C/C(=O)NCCCC[C@@H]3NC(=O)[C@H](CCCCn4cc(CO[C@@H]5O[C@H](CO)[C@H](O)[C@H](O)[C@H]5O)nn4)NC(=O)CNC(=O)[C@@H]4CCCN4C(=O)[C@H](CCCCn4cc(CO[C@@H]5O[C@H](CO)[C@H](O)[C@H](O)[C@H]5O)nn4)NC(=O)[C@H](C)NC(=O)[C@H](CCCCn4cc(CO[C@@H]5O[C@H](CO)[C@H](O)[C@H](O)[C@H]5O)nn4)NC(=O)CNC(=O)[C@@H]4CCCN4C(=O)[C@H](CCCCn4cc(CO[C@@H]5O[C@H](CO)[C@H](O)[C@H](O)[C@H]5O)nn4)NC3=O)NC(=O)[C@H](C)NC2=O)NC(=O)[C@H](CCCCNC(=O)/C=N/O[C@H]2O[C@H](CO)[C@@H](O)[C@H](O)[C@@H]2O)NC(=O)CNC(=O)[C@@H]2CCCN2C(=O)[C@H](CCCCNC(=O)/C=N/O[C@H]2O[C@H](CO)[C@@H](O)[C@H](O)[C@@H]2O)NC1=O [Compound 14]	21 ± 4 nM	51.6 to 58.1 kcal/mol	0.16	10.5 kcal/mol	58.13 ± 4.54 kcal/mol	47.6 kcal/mol	7,142	900 and 893	–	–
C[C@@H]1NC(=O)[C@H](CCCCn2cc(CO[C@@H]3O[C@H](CO)[C@H](O)[C@H](O)[C@H]3O)nn2)NC(=O)CNC(=O)[C@@H]2CCCN2C(=O)[C@H](CCCCn2cc(CO[C@@H]3O[C@H](CO)[C@H](O)[C@H](O)[C@H]3O)nn2)NC(=O)[C@H](CCCCN)NC(=O)[C@H](CCCCn2cc(CO[C@@H]3O[C@H](CO)[C@H](O)[C@H](O)[C@H]3O)nn2)NC(=O)CNC(=O)[C@@H]2CCCN2C(=O)[C@H](CCCCn2cc(CO[C@@H]3O[C@H](CO)[C@H](O)[C@H](O)[C@H]3O)nn2)NC1=O [Compound 18]	–	–	0.26	10.5 kcal/mol	33.22 ± 0.24 kcal/mol	22.8 kcal/mol	7,000 and 6,818	1,700 and 1,705	–	–
C[C@@H]1NC(=O)[C@H](CCCCNC(=O)/C=N/OCC(=O)NCCCC[C@@H]2NC(=O)[C@H](CCCCn3cc(CO[C@@H]4O[C@H](CO)[C@H](O)[C@H](O)[C@H]4O)nn3)NC(=O)CNC(=O)[C@@H]3CCCN3C(=O)[C@H](CCCCn3cc(CO[C@@H]4O[C@H](CO)[C@H](O)[C@H](O)[C@H]4O)nn3)NC(=O)[C@H](C)NC(=O)[C@H](CCCCn3cc(CO[C@@H]4O[C@H](CO)[C@H](O)[C@H](O)[C@H]4O)nn3)NC(=O)CNC(=O)[C@@H]3CCCN3C(=O)[C@H](CCCCn3cc(CO[C@@H]4O[C@H](CO)[C@H](O)[C@H](O)[C@H]4O)nn3)NC2=O)NC(=O)CNC(=O)[C@@H]2CCCN2C(=O)[C@H](CCCCNC(=O)/C=N/OCC(=O)NCCCC[C@@H]2NC(=O)[C@H](CCCCn3cc(CO[C@@H]4O[C@H](CO)[C@H](O)[C@H](O)[C@H]4O)nn3)NC(=O)CNC(=O)[C@@H]3CCCN3C(=O)[C@H](CCCCn3cc(CO[C@@H]4O[C@H](CO)[C@H](O)[C@H](O)[C@H]4O)nn3)NC(=O)[C@H](C)NC(=O)[C@H](CCCCn3cc(CO[C@@H]4O[C@H](CO)[C@H](O)[C@H](O)[C@H]4O)nn3)NC(=O)CNC(=O)[C@@H]3CCCN3C(=O)[C@H](CCCCn3cc(CO[C@@H]4O[C@H](CO)[C@H](O)[C@H](O)[C@H]4O)nn3)NC2=O)NC(=O)[C@H](CCCCN)NC(=O)[C@H](CCCCNC(=O)/C=N/OCC(=O)NCCCC[C@@H]2NC(=O)[C@H](CCCCn3cc(CO[C@@H]4O[C@H](CO)[C@H](O)[C@H](O)[C@H]4O)nn3)NC(=O)CNC(=O)[C@@H]3CCCN3C(=O)[C@H](CCCCn3cc(CO[C@@H]4O[C@H](CO)[C@H](O)[C@H](O)[C@H]4O)nn3)NC(=O)[C@H](C)NC(=O)[C@H](CCCCn3cc(CO[C@@H]4O[C@H](CO)[C@H](O)[C@H](O)[C@H]4O)nn3)NC(=O)CNC(=O)[C@@H]3CCCN3C(=O)[C@H](CCCCn3cc(CO[C@@H]4O[C@H](CO)[C@H](O)[C@H](O)[C@H]4O)nn3)NC2=O)NC(=O)CNC(=O)[C@@H]2CCCN2C(=O)[C@H](CCCCNC(=O)/C=N/OCC(=O)NCCCC[C@@H]2NC(=O)[C@H](CCCCn3cc(CO[C@@H]4O[C@H](CO)[C@H](O)[C@H](O)[C@H]4O)nn3)NC(=O)CNC(=O)[C@@H]3CCCN3C(=O)[C@H](CCCCn3cc(CO[C@@H]4O[C@H](CO)[C@H](O)[C@H](O)[C@H]4O)nn3)NC(=O)[C@H](C)NC(=O)[C@H](CCCCn3cc(CO[C@@H]4O[C@H](CO)[C@H](O)[C@H](O)[C@H]4O)nn3)NC(=O)CNC(=O)[C@@H]3CCCN3C(=O)[C@H](CCCCn3cc(CO[C@@H]4O[C@H](CO)[C@H](O)[C@H](O)[C@H]4O)nn3)NC2=O)NC1=O [Compound 20]	–	90.3 kcal/mol	0.09	10.7 kcal/mol	90.49 ± 3.59 kcal/mol	79.78 kcal/mol	10,000 and 10,714	670	2.5	nanomolar affinity
CO[C@@H]1O[C@H](CO)[C@H](O)[C@H](O)[C@H]1O [βGal-OMe, methyl β-D-galactoside]	–	–	–	–	–	–	1	1	–	–

— publication PMC6783499, “Heteroglycoclusters With Dual Nanomolar Affinities for the Lectins LecA and LecB From Pseudomonas aeruginosa” (Frontiers in Chemistry, 2019)
